# Numbers after ± are expanded uncertainties.
# How the values were obtained:
# [1] = for Normal melting temperature: visual observation; for Triple point temperature / Glass transition temperature: DSC
# [2] = Molar enthalpy of transition or fusion; details: DSC
Structure (SMILES),Normal melting temperature ([1]; Crystal),Triple point temperature ([1]; Crystal),Glass transition temperature [1],Molar enthalpy of transition or fusion ([2]; Crystal 1),other results
CCCCn1cc[n+](C)c1.O=S(=O)([O-])C(F)(F)F [1-butyl-3-methylimidazolium trifluoromethanesulfonate],–,291.46 ± 1.2 K,–,–,Molar enthalpy of transition or fusion ([2]; Crystal): 4.82 ± 0.141 kcal/mol
CCCCn1cc[n+](C)c1.F[P-](F)(F)(F)(F)F [1-butyl-3-methylimidazolium hexafluorophosphate],–,–,-74.28 ± 1.2 °C,2.73 ± 0.0837 kcal/mol,Triple point temperature ([1]; Crystal 1): 286.46 ± 1.2 K
CCCCn1cc[n+](C)c1.F[B-](F)(F)F [1-butyl-3-methylimidazolium tetrafluoroborate],–,–,-83.90 ± 8 °C,–,–
CCCCCCCCn1cc[n+](C)c1.O=S(=O)([O-])C(F)(F)F [1-octyl-3-methylimidazolium trifluoromethanesulfonate],–,283.51 ± 1.2 K,–,5.76 ± 0.165 kcal/mol,–

# More lines, main results first:
Normal melting temperature ([1]; Crystal),Structure (SMILES),Triple point temperature ([1]; Crystal),Glass transition temperature [1],Molar enthalpy of transition or fusion ([2]; Crystal 1),other results
188.27 ± 0.16 °C,NC(=O)c1cnccn1 [pyrazinecarboxamide],–,–,–,–
172.69 ± 2 °C,NNC(=O)c1ccncc1 [isonicotinic acid hydrazide],–,–,–,–

# From the NIST ThermoML archive (doi:10.1021/acs.jced.6b00201)
